According to patent US8217063B2, “Lactam-substituted dicarboxylic acids and use thereof” (Bayer Intellectual Property GmbH, priority 2007, dated 2012):

Key:
[1] = biological target: T1, recombinant guanylate cyclase reporter cell line (Rattus norvegicus, UniProt P20595); assay: sGC-activating activity in the CHO reporter cell in vitro; assay type: cell-based
T1 construct: expressed in transfected cells; host or cells: CHO
T1 sequence (P20595 1-619): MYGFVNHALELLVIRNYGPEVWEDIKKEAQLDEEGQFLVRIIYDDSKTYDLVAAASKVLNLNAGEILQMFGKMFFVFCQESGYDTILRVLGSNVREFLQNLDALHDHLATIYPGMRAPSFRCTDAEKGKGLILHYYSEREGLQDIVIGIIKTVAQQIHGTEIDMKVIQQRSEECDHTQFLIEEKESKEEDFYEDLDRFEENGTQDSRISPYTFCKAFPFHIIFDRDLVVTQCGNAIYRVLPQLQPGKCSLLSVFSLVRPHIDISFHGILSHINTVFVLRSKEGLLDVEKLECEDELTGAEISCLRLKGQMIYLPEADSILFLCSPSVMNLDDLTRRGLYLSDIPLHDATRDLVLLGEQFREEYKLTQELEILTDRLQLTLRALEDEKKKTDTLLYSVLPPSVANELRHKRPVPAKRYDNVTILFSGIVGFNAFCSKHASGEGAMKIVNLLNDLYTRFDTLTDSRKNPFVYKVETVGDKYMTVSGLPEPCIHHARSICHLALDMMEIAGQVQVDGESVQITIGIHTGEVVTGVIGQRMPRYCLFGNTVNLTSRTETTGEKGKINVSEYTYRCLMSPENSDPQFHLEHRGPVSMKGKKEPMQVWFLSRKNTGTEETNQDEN
T1 sequence (P19686 1-690 partner): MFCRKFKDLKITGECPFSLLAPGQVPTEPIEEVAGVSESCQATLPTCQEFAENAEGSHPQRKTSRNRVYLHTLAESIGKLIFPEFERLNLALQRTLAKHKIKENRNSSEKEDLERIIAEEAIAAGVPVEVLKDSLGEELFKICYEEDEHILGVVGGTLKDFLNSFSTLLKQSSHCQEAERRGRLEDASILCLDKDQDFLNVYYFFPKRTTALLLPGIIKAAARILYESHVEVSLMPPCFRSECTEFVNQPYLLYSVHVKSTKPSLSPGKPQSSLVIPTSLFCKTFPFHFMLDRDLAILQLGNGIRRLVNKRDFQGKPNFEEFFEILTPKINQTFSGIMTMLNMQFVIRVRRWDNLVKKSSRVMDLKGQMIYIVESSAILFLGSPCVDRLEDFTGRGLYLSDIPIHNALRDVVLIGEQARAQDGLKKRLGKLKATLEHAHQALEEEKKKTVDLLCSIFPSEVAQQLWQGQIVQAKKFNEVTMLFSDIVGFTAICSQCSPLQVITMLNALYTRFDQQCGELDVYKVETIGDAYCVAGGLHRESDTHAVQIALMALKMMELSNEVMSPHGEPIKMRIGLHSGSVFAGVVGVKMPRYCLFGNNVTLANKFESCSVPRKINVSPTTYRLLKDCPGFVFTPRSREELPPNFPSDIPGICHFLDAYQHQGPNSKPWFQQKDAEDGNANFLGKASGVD
Experimental: B-3. Action at Recombinant Guanylate Cyclase Reporter Cell Lines
The cellular action of the compounds according to the invention is determined using a recombinant guanylate cyclase reporter cell line, as described in F. Wunder et al., Anal. Biochem. 339, 104-112 (2005).

saphenous artery = assay: Vasorelaxant effect in vitro (phenylephrine-contracted artery rings); design: species or system Rabbits; details: Oryctolagus cuniculus; rabbit saphenous artery rings, contraction induced by phenylephrine
Experimental: B-1. Vasorelaxant Effect In Vitro:
Rabbits are anesthetized and sacrificed by intravenous injection of thiopental sodium (about 50 mg/kg) and exsanguinated. The saphenous artery is removed and divided into rings 3 mm wide. The rings are mounted singly on in each case a pair of triangular hooks open at the end and made of 0.3 mm-thick special wire (Remanium®). Each ring is placed under an initial tension in 5 ml organ baths with Krebs-Henseleit solution which is at 37° C., is gassed with carbogen and has the following composition: NaCl 119 mM; KCl 4.8 mM; CaCl2×2H2O 1 mM; MgSO4×7H2O 1.4 mM; KH2PO4 1.2 mM; NaHCO3 25 mM; glucose 10 mM; bovine serum albumin 0.001%. The force of contraction is detected with Statham UC2 cells, amplified and digitized via A/D converters (DAS-1802 HC, Keithley Instruments, Munich) and recorded in parallel on chart recorders. Contractions are induced by addition of phenylephrine.
After several (generally 4) control cycles, the substance to be investigated is added in each further run in increasing dosage, and the height of the contraction achieved under the influence of the test substance is compared with the height of the contraction reached in the last preceding run. The concentration necessary to reduce the contraction reached in the preceding control by 50% is calculated from this (IC50). The standard application volume is 5 μl. The proportion of DMSO in the bath solution corresponds to 0.1%.

Heme-containing sGC = biological target: T2, Heme-containing sGC (Rattus norvegicus, UniProt P20595); assay: Stimulation of recombinant soluble guanylate cyclase (sGC) in vitro, heme-containing enzyme; assay type: biochemical; details: 0.0 μM Example 3
T2 construct: made in house; host or cells: baculovirus/Sf9
T2 sequence (P20595 1-619): T1 sequence (P20595 1-619)
T2 sequence (P19686 1-690 partner): T1 sequence (P19686 1-690 partner)
Source text: B-2. Stimulation of Recombinant Soluble Guanylate Cyclase (sGC) In Vitro:
Hoenicka, E. M. Becker, H. Apeler, T. Sirichoke, H. Schroeder, R. Gerzer and J.-P. Stasch, “Purified soluble guanylyl cyclase expressed in a baculovirus/Sf9 system: Stimulation by YC-1, nitric oxide, and carbon oxide”, J. Mol. Med. 77 (1999), 14-23. The heme-free guanylate cyclase is obtained by adding Tween 20 to the sample buffer (0.5% in the final concentration).
The activation of sGC by a test substance is reported as n-fold stimulation of the basal activity.

MEC (minimum effective concentration) [1]	IC50 (saphenous artery)	SMILES	further results
1 nM		O=C(O)c1ccc(CCC(/C=C/c2ccccc2OCCCCCN2CCCCC2=O)Cc2ccc(C(=O)O)cc2)cc1 (racemic) [Example 7, 4-[(4E)-3-(4-Carboxybenzyl)-5-(2-{[5-(2-oxopiperidin-1-yl)pentyl]oxy}phenyl)pent-4-en-1-yl]-benzoic acid]	
1 nM		O=C(O)c1ccc(CCC(/C=C/c2ccccc2OCCCCCN2CCOC2=O)Cc2ccc(C(=O)O)cc2)cc1 (racemic) [Example 8, 4-[(4E)-3-(4-Carboxybenzyl)-5-(2-{[5-(2-oxo-1,3-oxazolidin-3-yl)pentyl]oxy}phenyl)pent-4-en-1-yl]benzoic acid]	
3 nM		CN1CCCN(CCCCCOc2ccccc2/C=C/C(CCc2ccc(C(=O)O)cc2)Cc2ccc(C(=O)O)cc2)C1=O (racemic) [Example 10, 4-[(4E)-3-(4-Carboxybenzyl)-5-(2-{[5-(3-methyl-2-oxotetrahydropyrimidin-1(2H)-yl)pentyl]oxy}-phenyl)pent-4-en-1-yl]benzoic acid]	
100 nM		O=C(O)c1ccc(CCC(/C=C/c2ccccc2OCCN2CCOC2=O)Cc2ccc(C(=O)O)cc2)cc1 (racemic) [Example 12, 4-[(4E)-3-(4-Carboxybenzyl)-5-{2-[2-(2-oxo-1,3-oxazolidin-3-yl)ethoxy]phenyl}pent-4-en-1-yl]-benzoic acid]	
2 nM	330 nM	O=C(O)c1ccc(CCC(/C=C/c2ccccc2OCCCN2CCOCC2=O)Cc2ccc(C(=O)O)cc2)cc1 (single isomer, unassigned) [Example 4, 4-[(4E)-3-(4-Carboxybenzyl)-5-{2-[3-(3-oxomorpholin-4-yl)propoxy]phenyl}pent-4-en-1-yl]-benzoic acid]	
	58 nM	O=C(O)c1ccc(CCC(/C=C/c2ccccc2OCCCN2CCOC2=O)Cc2ccc(C(=O)O)cc2)cc1 (single isomer, unassigned) [Example 5, 4-[(4E)-3-(4-Carboxybenzyl)-5-{2-[3-(2-oxo-1,3-oxazolidin-3-yl)propoxy]phenyl}pent-4-en-1-yl]-benzoic acid]	
3 nM	135 nM	O=C(O)c1ccc(CCC(/C=C/c2cc(F)ccc2OCCCN2CCCC2=O)Cc2ccc(C(=O)O)cc2)cc1 (single isomer, unassigned) [Example 6, 4-[(4E)-3-(4-Carboxybenzyl)-5-{5-fluoro-2-[3-(2-oxopyrrolidin-1-yl)propoxy]phenyl}pent-4-en-1-yl]benzoic acid]	
		CCN(CC)[N+]([O-])=NO [DEA/NO, 2-(N,N-diethylamino)diazenolate 2-oxide, reference compound]	Stimulation (n-fold) of sGC by DEA/NO alone (Heme-containing sGC; 0.1 μM DEA/NO): 18.5 n-fold
3 nM	390 nM	O=C(O)c1ccc(CCC(/C=C/c2cc(F)ccc2OCCCN2CCCC2=O)CCc2ccc(C(=O)O)cc2)cc1 [Example 1, 4-[(4E)-3-[2-(4-Carboxyphenyl)ethyl]-5-{5-fluoro-2-[3-(2-oxopyrrolidin-1-yl)propoxy]phenyl}-pent-4-en-1-yl]benzoic acid]	
3 nM	255 nM	O=C(O)c1ccc(CCC(/C=C/c2ccccc2OCCCN2CCCC2=O)CCc2ccc(C(=O)O)cc2)cc1 [Example 2, 4-[(4E)-3-[2-(4-Carboxyphenyl)ethyl]-5-{2-[3-(2-oxopyrrolidin-1-yl)propoxy]phenyl}pent-4-en-1-yl]benzoic acid]	
1 nM		CC1OCCN(CCCCCOc2ccccc2/C=C/C(CCc2ccc(C(=O)O)cc2)Cc2ccc(C(=O)O)cc2)C1=O (centres unmarked) [Example 9, 4-[(4E)-3-(4-Carboxybenzyl)-5-(2-[5-(2-methyl-3-oxomorpholin-4-yl)pentyl]oxy 1-phenyl)pent-4-en-1-yl]benzoic acid]	
		O=c1onc2cnc3ccccc3n12 [ODQ, 1H-1,2,4-oxadiazole-(4,3a)-quinoxalin-1-one, reference compound]	Stimulation (n-fold) of sGC with ODQ alone (Heme-containing sGC; 10 μM ODQ): 3.9 n-fold

SMILES	MEC (minimum effective concentration) [1]	IC50 (saphenous artery)	further results
O=C(O)c1ccc(CCC(/C=C/c2ccccc2OCCCCN2CCCC2=O)Cc2ccc(C(=O)O)cc2)cc1 (racemic) [Example 11, 4-[(4E)-3-(4-Carboxybenzyl)-5-{2-[4-(2-oxopyrrolidin-1-yl)butoxy]phenyl}pent-4-en-1-yl]benzoic acid]	<1 nM		
